From PubChem BioAssay (NCI)
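Five concentrations, 48 hours, 96-well plates. GI50 is the concentration that inhibits growth by half. TGI: total growth inhibition.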

How the values were obtained:
Assay in all cases: growth of human tumour cells (NCI), 48 h
786-0 renal = test system: 786-0 renal
A498 renal = test system: A498 renal
A549 NSCLC = test system: A549 NSCLC
ACHN renal = test system: ACHN renal
BT-549 breast = test system: BT-549 breast
CAKI-1 renal = test system: CAKI-1 renal
CCRF-CEM leukemia = test system: CCRF-CEM leukemia
COLO 205 colon = test system: COLO 205 colon
DU-145 prostate = test system: DU-145 prostate
EKVX NSCLC = test system: EKVX NSCLC
HCC-2998 colon = test system: HCC-2998 colon
HCT-116 colon = test system: HCT-116 colon
HCT-15 colon = test system: HCT-15 colon
HL-60(TB) leukemia = test system: HL-60(TB) leukemia
HOP-62 NSCLC = test system: HOP-62 NSCLC
HS 578T breast = test system: HS 578T breast
HT29 colon = test system: HT29 colon
IGROV1 ovarian = test system: IGROV1 ovarian
K-562 leukemia = test system: K-562 leukemia
KM12 colon = test system: KM12 colon
LOX IMVI melanoma = test system: LOX IMVI melanoma
M14 melanoma = test system: M14 melanoma
MCF7 breast = test system: MCF7 breast
MDA-MB-231 breast = test system: MDA-MB-231 breast
MDA-MB-435 = test system: MDA-MB-435
MOLT-4 leukemia = test system: MOLT-4 leukemia
NCI-H226 lung = test system: NCI-H226 lung
NCI-H23 lung = test system: NCI-H23 lung
NCI-H460 lung = test system: NCI-H460 lung
NCI-H522 lung = test system: NCI-H522 lung
NCI/ADR-RES ovarian = test system: NCI/ADR-RES ovarian
OVCAR-3 ovarian = test system: OVCAR-3 ovarian
OVCAR-4 ovarian = test system: OVCAR-4 ovarian
OVCAR-5 ovarian = test system: OVCAR-5 ovarian
OVCAR-8 ovarian = test system: OVCAR-8 ovarian
PC-3 prostate = test system: PC-3 prostate
RPMI-8226 leukemia = test system: RPMI-8226 leukemia
RXF 393 renal = test system: RXF 393 renal
SF-268 CNS = test system: SF-268 CNS
SF-295 CNS = test system: SF-295 CNS
SF-539 CNS = test system: SF-539 CNS
SK-MEL-2 melanoma = test system: SK-MEL-2 melanoma
SK-MEL-28 melanoma = test system: SK-MEL-28 melanoma
SK-MEL-5 melanoma = test system: SK-MEL-5 melanoma
SK-OV-3 ovarian = test system: SK-OV-3 ovarian
SN12C renal = test system: SN12C renal
SNB-19 CNS = test system: SNB-19 CNS
SNB-75 CNS = test system: SNB-75 CNS
SR leukemia = test system: SR leukemia
SW-620 colon = test system: SW-620 colon
TK-10 renal = test system: TK-10 renal
U251 CNS = test system: U251 CNS
UACC-257 melanoma = test system: UACC-257 melanoma
UACC-62 melanoma = test system: UACC-62 melanoma
UO-31 renal = test system: UO-31 renal

## O=C1OCC2=C1C(c1cccc(Cl)c1)c1cc3c(cc1N2CCO)OCO3 (configuration not stated)
786-0 renal
  GI50: 558 nM
  TGI: > 41800 nM
A498 renal
  GI50: 230 nM
  TGI: 2550 nM
A549 NSCLC
  GI50: 498 nM
  TGI: 33500 nM
ACHN renal
  GI50: 785 nM
  TGI: > 100000 nM
BT-549 breast
  GI50: 603 nM
CAKI-1 renal
  GI50: 216 nM
  TGI: 22600 nM
CCRF-CEM leukemia
  GI50: 527 nM
  TGI: > 100000 nM
COLO 205 colon
  GI50: 360 nM
  TGI: 1380 nM
DU-145 prostate
  GI50: 512 nM
  TGI: 16900 nM
EKVX NSCLC
  GI50: 2590 nM
  TGI: > 87200 nM
HCC-2998 colon
  GI50: 1070 nM
  TGI: 14300 nM
HCT-116 colon
  GI50: 466 nM
  TGI: > 36300 nM
HCT-15 colon
  GI50: 428 nM
  TGI: > 100000 nM
HL-60(TB) leukemia
  GI50: 328 nM
  TGI: 3700 nM
HOP-62 NSCLC
  GI50: 481 nM
  TGI: 57700 nM
HS 578T breast
  GI50: 445 nM
  TGI: > 58200 nM
HT29 colon
  GI50: 364 nM
  TGI: 4730 nM
IGROV1 ovarian
  GI50: 2790 nM
  TGI: > 74400 nM
K-562 leukemia
  GI50: 354 nM
  TGI: > 100000 nM
KM12 colon
  GI50: 398 nM
  TGI: 29600 nM
LOX IMVI melanoma
  GI50: 600 nM
  TGI: 27000 nM
M14 melanoma
  GI50: 360 nM
  TGI: > 22500 nM
MCF7 breast
  GI50: 313 nM
  TGI: > 100000 nM
MDA-MB-231 breast
  GI50: 1660 nM
  TGI: 14400 nM
MDA-MB-435
  GI50: 38.3 nM
  TGI: 233 nM
MOLT-4 leukemia
  GI50: 1140 nM
  TGI: 97800 nM
NCI-H226 lung
  GI50: 753 nM
  TGI: 20000 nM
NCI-H23 lung
  GI50: 502 nM
  TGI: > 100000 nM
NCI-H460 lung
  GI50: 414 nM
  TGI: > 35300 nM
NCI-H522 lung
  GI50: 228 nM
  TGI: 16200 nM
NCI/ADR-RES ovarian
  GI50: 301 nM
  TGI: > 41000 nM
OVCAR-3 ovarian
  GI50: 270 nM
  TGI: 811 nM
OVCAR-4 ovarian
  GI50: 696 nM
  TGI: > 100000 nM
OVCAR-5 ovarian
  GI50: 1260 nM
  TGI: > 100000 nM
OVCAR-8 ovarian
  GI50: 503 nM
  TGI: > 65800 nM
PC-3 prostate
  GI50: 381 nM
  TGI: > 43700 nM
RPMI-8226 leukemia
  GI50: 535 nM
  TGI: 35800 nM
RXF 393 renal
  GI50: 278 nM
SF-268 CNS
  GI50: 700 nM
  TGI: 34600 nM
SF-295 CNS
  GI50: 260 nM
  TGI: 22400 nM
SF-539 CNS
  GI50: 303 nM
SK-MEL-2 melanoma
  GI50: 2440 nM
  TGI: > 44300 nM
SK-MEL-28 melanoma
  GI50: 755 nM
  TGI: > 100000 nM
SK-MEL-5 melanoma
  GI50: 256 nM
  TGI: 12500 nM
SK-OV-3 ovarian
  GI50: 412 nM
  TGI: 10500 nM
SN12C renal
  GI50: 817 nM
  TGI: > 63700 nM
SNB-19 CNS
  GI50: 784 nM
  TGI: > 100000 nM
SNB-75 CNS
  GI50: 281 nM
  TGI: > 100000 nM
SR leukemia
  GI50: 359 nM
  TGI: 70400 nM
SW-620 colon
  GI50: 358 nM
  TGI: > 100000 nM
TK-10 renal
  GI50: 17700 nM
  TGI: > 100000 nM
U251 CNS
  GI50: 383 nM
  TGI: 17700 nM
UACC-257 melanoma
  GI50: 256 nM
  TGI: > 44500 nM
UACC-62 melanoma
  GI50: 360 nM
  TGI: > 44600 nM
UO-31 renal
  GI50: 465 nM
  TGI: > 65400 nM
